Test results taken from US20240150755A1, “MODULATING REGULATORY T CELL FUNCTION IN AUTOIMMUNE DISEASE AND CANCER” (Salk Institute for Biological Studies, priority 2021, published 2024).

Test system: Brd9-dependent Foxp3 binding sites
Test: ATAC-seq chromatin accessibility in Treg cells
Assay type: cell-based, mouse
Conditions: sgBrd9 vs sgNT Treg cells; 61/1699 sites
Experimental: ATAC-seq was performed according to previously published protocol (Corces et al., Nat Methods 14:959-962, 2017). Briefly, Tregs transduced with either sgNT or sgBrd9 were subjected to Ficoll™ gradient purification to remove dead cells and ensure capture of cells that were 99% viable. 50,000 Treg cells were collected in duplicates per genotype and washed first with cold 1×PBS then with Resuspension buffer (RSB; 10 mM Tris-HCl pH 7.4, 10 mM NaCl, 3 mM MgCl2). Cells were lysed in 50 μL of RSB supplemented with 0.1% NP40, 0.01% Digitonin and 0.1% Tween 20 for 3 minutes on ice then diluted with 1 mL of RSB with 0.1% Tween 20. […]
ATAC-seq data analysis used the following tools and versions: cutadapt (v2.4), samtools (v1.9), Picard (v1.7.1), BWA (v0.7.12), macs2 (v2.1.2), and HOMER (v4.11). Paired end 42 bp reads were trimmed using cutadapt to remove Nextera™ adapter sequences then aligned to the reference mouse genome mm10 using BWA. The following were filtered out using Picard and samtools: duplicate reads, mitochondrial reads, low quality reads (Q<20), and improperly paired or unpaired reads. Quality was assessed by calculating Fraction of Reads In Peaks ([…]) which were >40% for all samples. TSS enrichment was determined using mm10 Refseq TSSs. […]

Q: How did the “Brd9-dependent Foxp3 binding sites with significant reduction in chromatin accessibility” value turn out when “sgBrd9: sgRNA targeting Brd9, ATTAACCGGTTTCTCCCGGG (SEQ ID NO: 12) (expressed or natural sequence)” was run?
A: The value was 3.5%.
